Laboratory results published in ChEMBL document CHEMBL1201862, “PubChem BioAssay data set” (2004).
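The compound was tested at five concentrations on cells cultured in 96-well plates, with a 48-hour exposure period. GI50 = concentration required for 50% inhibition of growth.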 Activity calls are given as the source filed them. No stated cut-off is given here; in the data, active = GI50 up to about 1.1 µM and inactive = higher.

Experiments:
Assay in all cases: NCI anticancer screen, dose series, 48 h
786-0 = tested on: 786-0
A549 = tested on: A549
ACHN = tested on: ACHN
DU-145 = tested on: DU-145
HOP-92 = tested on: HOP-92
HT-29 = tested on: HT-29
KM12 = tested on: KM12
M14 = tested on: M14
MOLT-4 = tested on: MOLT-4
NCI-H226 = tested on: NCI-H226
NCI-H460 = tested on: NCI-H460
OVCAR-4 = tested on: OVCAR-4
OVCAR-5 = tested on: OVCAR-5
PC-3 = tested on: PC-3
SF-268 = tested on: SF-268
SK-MEL-2 = tested on: SK-MEL-2
SN12C = tested on: SN12C
SNB-75 = tested on: SNB-75
U-251 = tested on: U-251
UACC-257 = tested on: UACC-257

| Structure (SMILES) | GI50 (786-0) | GI50 (A549) | GI50 (ACHN) | GI50 (DU-145) | GI50 (HOP-92) | GI50 (HT-29) | GI50 (KM12) | GI50 (M14) | GI50 (MOLT-4) | GI50 (NCI-H226) | GI50 (NCI-H460) | GI50 (OVCAR-4) | GI50 (OVCAR-5) | GI50 (PC-3) | GI50 (SF-268) | GI50 (SK-MEL-2) | GI50 (SN12C) | GI50 (SNB-75) | GI50 (U-251) | GI50 (UACC-257) |
| --- | --- | --- | --- | --- | --- | --- | --- | --- | --- | --- | --- | --- | --- | --- | --- | --- | --- | --- | --- | --- |
| CC(=O)/C(=N\N=C(N)N)c1ccccc1 | > 100 µM (inactive) | > 100 µM (inactive) | > 100 µM (inactive) | > 100 µM (inactive) | > 100 µM (inactive) | > 100 µM (inactive) | > 100 µM (inactive) | > 100 µM (inactive) | > 100 µM (inactive) | > 100 µM (inactive) | > 100 µM (inactive) | > 100 µM (inactive) | > 100 µM (inactive) | > 100 µM (inactive) | > 100 µM (inactive) | > 100 µM (inactive) | > 100 µM (inactive) | > 100 µM (inactive) | > 100 µM (inactive) | > 100 µM (inactive) |
| Cn1c(-c2ccc[se]2)ccc1-c1ccc(C=O)[se]1 | 20.9 µM (inactive) | 23.3 µM (inactive) | 46.6 µM (inactive) | 29.4 µM (inactive) | 10.5 µM (inactive) | 10.8 µM (inactive) | > 100 µM (inactive) | > 86.3 µM (inactive) | 7.43 µM (inactive) | 0.865 µM (active) | 0.308 µM (active) | 0.247 µM (active) | 0.0418 µM (active) | 56.9 µM (inactive) | 16.4 µM (inactive) | 65.3 µM (inactive) | 14.9 µM (inactive) | 23 µM (inactive) | 0.0811 µM (active) | 0.796 µM (active) |
| C[C@H](CCC(=O)O)[C@H]1CC[C@H]2[C@@H]3[C@H](O)C[C@@H]4C[C@H](O)CC[C@]4(C)[C@H]3C[C@H](O)[C@]12C | > 100 µM (inactive) | > 100 µM (inactive) | > 100 µM (inactive) | > 100 µM (inactive) | > 100 µM (inactive) | > 100 µM (inactive) | > 100 µM (inactive) | > 100 µM (inactive) | > 100 µM (inactive) | > 100 µM (inactive) | > 100 µM (inactive) | > 100 µM (inactive) | > 100 µM (inactive) | > 100 µM (inactive) | > 100 µM (inactive) | > 100 µM (inactive) | > 100 µM (inactive) | > 100 µM (inactive) | > 100 µM (inactive) | > 100 µM (inactive) |
| COC(=O)C1(Cc2ccccc2)Cc2ccc3c(c2C1=O)CCC3 (centres undefined) | 33.7 µM (inactive) | 46.3 µM (inactive) | 51.4 µM (inactive) | > 75.3 µM (inactive) | 20.8 µM (inactive) | 29 µM (inactive) | 31.8 µM (inactive) | 25.1 µM (inactive) | 20.6 µM (inactive) | > 55.6 µM (inactive) | 60.8 µM (inactive) | > 29.9 µM (inactive) | > 63 µM (inactive) | 26.1 µM (inactive) | > 66.5 µM (inactive) | 18.1 µM (inactive) | 44.4 µM (inactive) | 22.6 µM (inactive) | 36.1 µM (inactive) | 35.2 µM (inactive) |
| O=C1NC(c2ccccc2)C1N(Cc1ccccc1)Cc1ccccc1 (centres undefined) | > 100 µM (inactive) |  | > 100 µM (inactive) | > 100 µM (inactive) | > 100 µM (inactive) | > 100 µM (inactive) | > 100 µM (inactive) | > 100 µM (inactive) | > 100 µM (inactive) | > 100 µM (inactive) | > 100 µM (inactive) | 59.8 µM (inactive) | > 100 µM (inactive) | > 100 µM (inactive) | > 100 µM (inactive) | > 100 µM (inactive) | > 100 µM (inactive) | 25.5 µM (inactive) | > 100 µM (inactive) | > 100 µM (inactive) |
